# In patent publication US20050026949A1, “Methods of therapeutic treatment using amounts of retinoids without regard to body weight” (Allergan, Inc., priority 2003, published 2005):
# What was measured:
# [1] = tested on: patient with severe psoriasis; assay: Patient with severe psoriasis taking Ortho-Novum treated with tazarotene (Example 9); assay type: in vivo, human
# From the text: The patient presents symptoms of severe psoriasis. The symptoms include lesions approximately 4 to 10 centimeters across appearing as raised patches of wine red skin many of which are covered in silvery white scales. The lesions are mostly dry and rough, and quite often noticeably warm to the touch. The lesions are present on the elbows, knees, scalp, and groin area. The patient experiences intense burning and itching associated with the lesions.
# The patient is currently taking Ortho-Novum® for contraception.
# Tazarotene at a dose of 6 mg per day is prescribed.
# [2] = tested on: patients with severe nodulocystic acne; assay: Multicenter double-blind placebo-controlled study of oral tazarotene (Example 10); assay type: in vivo, human; details: for patients withdrawing due to lack of efficacy: placebo 17%; for reduction in mean facial papule or pastule count / reduction in mean facial non-inflammatory lesion count / reduction in mean total facial nodulocystic lesion count: end of treatment; for reduction in mean facial papule or pastule count: placebo 31%; for reduction in mean facial non-inflammatory lesion count: placebo 45%; for reduction in mean total facial nodulocystic lesion count: placebo 55%
# From the text: A multicenter, double-blind, randomized, placebo-controlled parallel-group study is undertaken to determine the efficacy of orally administered tazarotene in treating severe nodulocystic acne.
# In addition, washout periods for other medications for this study are: 1 week for vitamin A supplements >5000 IU; 2 weeks for topical anti-acne medications (e.g., retinoids, azelaic acid, benzoyl peroxide); 2 weeks for topical or systemic antibiotic therapy that may alter the course of acne; and 6 months for systemic retinoids.
# Patients are randomized to receive placebo or oral tazarotene (0.75, 1.5, 3, or 6 mg), in a 1:1:1:1:1 ratio once daily for 24 weeks. After this, the patients are followed without treatment for an additional 12 weeks. Patients discontinuing from the treatment period due to adverse effects or lack of efficacy are eligible for entry into the post-treatment phase.
# In the study, overall acne severity is rated as: none (no inflammatory acne lesions); mild (few to several papules or pustules, no nodulocystic lesions); moderate (several to many papules or pustules, few to several nodulocystic lesions); and severe (numerous or extensive papules or pustules, many, for example, at least about 5 or at least about 10, nodulocystic lesions).
# Treatment success is defined as at least moderate (about 50%) improvement on the following 7-point global response scale: • 0=completely cleared • 1=almost cleared (about 90% improvement) • 2=marked response (about 75% improvement) • 3=moderate response (about 50% improvement) • 4=slight response (about 25% improvement) • 5=condition unchanged • 6=condition worsened
# In this study, facial nodulocystic lesion count includes lesions greater than 5 mm in size. Facial papular/pustular lesion count includes lesions less than or equal to 5 mm in size. Facial non-inflammatory lesion count includes open and closed comedones.
# Sebum output is assessed every 4 weeks at selected centers using the Sebutape® patches, sold by Cuderm Corporation. Urinalysis, chemistry, and hematology values are monitored. Bone formation and resorption assessments (serum bone alkaline phosphatase and serum amino terminal telopeptides, respectively) at selected centers are monitored.
# Bone mineral density of spine and proximal femur at selected centers is monitored. Ligament calcification or osteophyte formation (lateral X-ray of the cervical and thoracic spine, and ankle calcaneous) is monitored. Epiphyseal growth plate closure (internal oblique X-ray of the ankle in patients less than or equal to 21 years old) is monitored.
# [3] = tested on: patients having nodulocystic acne; assay: Two placebo-controlled dose-ranging safety studies of oral tazarotene (Example 5); assay type: in vivo, human; details: for incidence of joint disorder: placebo 0%; for incidence of arthralgia: placebo 6%; for incidence of myalgia: placebo 9%; for incidence of asthenia: placebo 13%; for incidence of dry skin: placebo 19%; for incidence of headache: placebo 28%; for incidence of cheilitis: placebo 31%; for depression: placebo 1 (2%); for emotional lability (all cases mild): placebo 2 (4%)
# Description: Two placebo-controlled dose-ranging studies are conducted to evaluate the safety of oral tazarotene in patients having nodulocystic acne. In the first study, patients receive orally administered tazarotene at daily doses of 0.4 mg to 2.8 mg in 96 (71+25) patients (12 weeks treatment plus 12 weeks post-treatment). In the second study, daily doses of 0.75 mg to 6 mg tazarotene are administered to 181 patients (24 weeks treatment plus 12 weeks post-treatment).
# [4] = tested on: AP1; assay: AP1 antagonism
# [5] = 0.75 to 6 mg once daily for 24 weeks
smiles,measurement,setting,value
CCOC(=O)c1ccc(C#Cc2ccc3c(c2)C(C)(C)CCS3)nc1 [tazarotene],psoriasis symptoms and lesions,"[1]; 6 mg per day, after 30 days",symptoms of itching and burning are relieved and the severity of their lesions are substantially lessened
same,serum FSH and LH levels,[1]; tazarotene 6 mg per day with Ortho-Novum,remain within the normal ranges
same,patients withdrawing due to adverse events in the treatment period,[2]; 0.75 mg group (2/35),6%
same,patients withdrawing due to lack of efficacy,[2]; 0.75 mg group (7/35),20%
same,patients with either no acne or mild acne,"[2]; 0.75 mg group, end of the treatment phase, placebo 19%",34%
same,reduction in mean facial papule or pastule count,[2]; 0.75 mg group,37%
same,reduction in mean facial non-inflammatory lesion count,[2]; 0.75 mg group,46%
same,reduction in mean total facial nodulocystic lesion count,[2]; 0.75 mg group,66%
same,mean total facial nodulocystic lesion count at the end of the treatment period,"[2]; 0.75 mg group, from 12.2 at baseline",4.2
same,mean facial papule or pastule count at the end of the treatment period,"[2]; 0.75 mg group, from 32.3 at baseline",20.3
same,mean facial non-inflammatory lesion count at the end of the treatment period,"[2]; 0.75 mg group, from 56.3 at baseline",30.3
same,patients withdrawing due to adverse events in the treatment period,[2]; 1.5 mg group (0/37),0%
same,patients withdrawing due to lack of efficacy,[2]; 1.5 mg group (2/37),5%
same,reduction in mean facial papule or pastule count,[2]; 1.5 mg group,54%
same,reduction in mean facial non-inflammatory lesion count,[2]; 1.5 mg group,70%
same,reduction in mean total facial nodulocystic lesion count,[2]; 1.5 mg group,73%
same,mean total facial nodulocystic lesion count at the end of the treatment period,"[2]; 1.5 mg group, from 11.8 at baseline",3.2
same,mean facial papule or pastule count at the end of the treatment period,"[2]; 1.5 mg group, from 29.1 at baseline",13.3
same,mean facial non-inflammatory lesion count at the end of the treatment period,"[2]; 1.5 mg group, from 59.2 at baseline",17.8
same,incidence of treatment success (≧50% global improvement) vs placebo,"[2]; 3 mg and 6 mg, week 24 and throughout the post-treatment phase (p≦0.05)",significantly higher incidence of treatment success
same,patients withdrawing due to lack of efficacy,[2]; 3 mg group (0/37),0%
same,patients withdrawing due to adverse events in the treatment period,[2]; 3 mg group (2/37),5%
same,patients with either no acne or mild acne,"[2]; 3 mg group, end of the post-treatment phase",43%
same,reduction in mean facial papule or pastule count,[2]; 3 mg group,61%
same,reduction in mean facial non-inflammatory lesion count,[2]; 3 mg group,62%
same,reduction in mean total facial nodulocystic lesion count,[2]; 3 mg group,79%
same,mean total facial nodulocystic lesion count at the end of the treatment period,"[2]; 3 mg group, from 10.8 at baseline",2.3
same,mean facial papule or pastule count at the end of the treatment period,"[2]; 3 mg group, from 25.4 at baseline",10.0
same,mean facial non-inflammatory lesion count at the end of the treatment period,"[2]; 3 mg group, from 56.1 at baseline",21.3
same,median time to initial complete clearing of facial nodulocystic lesions,"[2]; 3 mg group, placebo 24 weeks (p=0.017)",16 weeks
same,patients withdrawing due to adverse events in the treatment period,[2]; 6 mg group (1/36),3%
same,patients withdrawing due to lack of efficacy,[2]; 6 mg group (2/36),6%
same,patients with either no acne or mild acne,"[2]; 6 mg group, end of the post-treatment phase",53%
same,reduction in mean facial papule or pastule count,[2]; 6 mg group,55%
same,reduction in mean facial non-inflammatory lesion count,[2]; 6 mg group,72%
same,reduction in mean total facial nodulocystic lesion count,[2]; 6 mg group,86%
same,mean total facial nodulocystic lesion count at the end of the treatment period,"[2]; 6 mg group, from 11.6 at baseline",1.6
same,mean facial papule or pastule count at the end of the treatment period,"[2]; 6 mg group, from 24.6 at baseline",11.1
same,mean facial non-inflammatory lesion count at the end of the treatment period,"[2]; 6 mg group, from 47.7 at baseline",13.5
same,median time to initial complete clearing of facial nodulocystic lesions,"[2]; 6 mg group, placebo 24 weeks (p=0.081)",16 weeks
same,overall acne severity,"[2]; 6 mg, from week 16 until the end of the post-treatment phase (p≦0.01)",reduces the overall acne severity significantly more than placebo
same,"bone formation and resorption (serum bone alkaline phosphatase, serum amino terminal telopeptides)",[2]; [5],do not appear to be altered
same,"changes in urinalysis, chemistry, or hematology measures (including liver function tests, triglycerides, total cholesterol, HDL cholesterol)",[2]; [5],None of the treatment groups show any consistent clinically significant changes
same,"ligament calcification, osteophyte formation, or changes in bone density",[2]; [5],"None of the treatment groups show any clinically significant ligament calcification, osteophyte formation, or changes in bone density"
same,percentage of patients with at least a 90% reduction in facial nodulocystic lesion count vs placebo,"[2]; 1.5, 3, and 6 mg groups, week 24",significantly greater
same,sebum secretion (Sebutape method),[2]; oral tazarotene 0.75 to 6 mg vs placebo,does not substantially reduce sebum secretion relative to placebo
same,patients with either no acne or mild acne,"[2]; three highest dose groups, end of the treatment phase, placebo 19%",More than 45%
same,patients achieving treatment success,"[2]; three highest doses, by week 12",more than 70%
same,patients achieving treatment success,"[2]; two highest doses, by week 24",more than 86%
same,"changes in urinalysis, chemistry, or hematology measures (including liver function tests, triglycerides, total cholesterol, HDL cholesterol)",[3]; 0.4 mg to 6 mg daily,no consistent dose-related clinically significant changes
same,"ligament calcification, osteophyte formation, or changes in serum bone alkaline phosphatase, serum amino terminal telopeptides, or bone density",[3]; 0.4 mg to 6 mg daily,not associated with any clinically significant
same,patients withdrawing due to adverse events,[3]; 0.75 mg,2 patients
same,incidence of joint disorder,"[3]; 2.8 mg, n=11",27%
same,incidence of arthralgia,"[3]; 2.8 mg, n=11",9%
same,incidence of myalgia,"[3]; 2.8 mg, n=11",0%
same,incidence of asthenia,"[3]; 2.8 mg, n=11",0%
same,incidence of dry skin,"[3]; 2.8 mg, n=11",18%
same,incidence of headache,"[3]; 2.8 mg, n=11",9%
same,incidence of cheilitis,"[3]; 2.8 mg, n=11",64%
same,patients withdrawing due to adverse events,[3]; 3 mg,2 patients
same,"cheilitis, mild",[3]; 3 mg group,25 patients
same,"cheilitis, moderate",[3]; 3 mg group,3 patients
same,"cheilitis, severe",[3]; 3 mg group,1 patient
same,"dry skin, mild",[3]; 3 mg group,11 patients
same,"dry skin, moderate",[3]; 3 mg group,2 patient
same,depression,"[3]; 3 mg group (2 mild, 1 severe)",3 (8%) patients (%)
same,emotional lability (all cases mild),[3]; 3 mg group,1 (3%) patient (%)
same,incidence of joint disorder,"[3]; 3 mg, n=37",14%
same,incidence of arthralgia,"[3]; 3 mg, n=37",8%
same,incidence of myalgia,"[3]; 3 mg, n=37",16%
same,incidence of asthenia,"[3]; 3 mg, n=37",19%
same,incidence of dry skin,"[3]; 3 mg, n=37",35%
same,incidence of headache,"[3]; 3 mg, n=37",19%
same,incidence of cheilitis,"[3]; 3 mg, n=37",78%
same,patients withdrawing due to adverse events,[3]; 6 mg,1 patients
same,"cheilitis, mild",[3]; 6 mg group,27 patients
same,"cheilitis, moderate",[3]; 6 mg group,6 patients
same,"cheilitis, severe",[3]; 6 mg group,1 patient
same,"dry skin, mild",[3]; 6 mg group,17 patients
same,"dry skin, moderate",[3]; 6 mg group,1 patient
same,depression,[3]; 6 mg group,none
same,emotional lability (all cases mild),[3]; 6 mg group,5 (14%) patient (%)
same,incidence of joint disorder,"[3]; 6 mg, n=36",19%
same,incidence of arthralgia,"[3]; 6 mg, n=36",28%
same,incidence of myalgia,"[3]; 6 mg, n=36",25%
same,incidence of asthenia,"[3]; 6 mg, n=36",19%
same,incidence of dry skin,"[3]; 6 mg, n=36",50%
same,incidence of headache,"[3]; 6 mg, n=36",36%
same,incidence of cheilitis,"[3]; 6 mg, n=36",94%
same,patients withdrawing from either study due to adverse events,"[3]; 7/277, all groups incl. placebo",2.5%
same,"dry skin, severe",[3]; all groups,No patient has severe dry skin
same,AP1 antagonism,[4],potent AP1 antagonist
